# Measurements published in US10365268B2, “Methods for identifying modulators of membrane potentials in bipolar disorder and attention deficit hyperactivity disorder” (PsychNostics, LLC, priority 2011, dated 2019).
# “Also recorded” adds a separate entry of the source.
# How the values were obtained:
# RBC = experiment: membrane potential ratio (MPR) test: agent added to K+-free, EtOH-containing test buffer versus reference buffer; assay type: cell-based, human; settings: for EtOH effect (hSK4 opening / hyperpolarization): hSK4 blockers added to the test buffer
# Description: It is essential to understand these differences so that the underlying pathophysiology of these disorders is better understood leading to better diagnostic markers and drug targets. […] Membrane potential ratio (MPR™) is the ratio between the membrane potential in the test buffer and that in the reference buffer. The reference buffer contains NaCl, CaCl2, glucose and Hepes whereas the test buffer contains ethyl alcohol (EtOH) in addition to these compounds. […] The role of the absence of K^+ ions in the buffer on membrane potential and the addition of EtOH needs to be understood in order to explain their effects.
# The assay uses a reference buffer or regular buffer and a test buffer. The “reference buffer” or “regular buffer” contains only Na^+, Ca^2+, and HEPES without any other reagents. The “test buffer” containing no potassium (K^+-free buffer) is a HEPES buffer without potassium (4 mM NaHCO3, 5 mM HEPES, 134 mM NaCl, 2.3 mM CaCl2, and 5 mM glucose) and with a K^+ channel altering agent, at a pH of 6.8 (range of 6.6 to 7.0). The test buffer may also contain 30 μM ethacrynic acid dissolved in EtOH as solvent.
# In order to verify the CAK channel is involved in the membrane potential of the RBC used for the membrane potential ratios (MPR™) tests, the CAK channel blockers, quinine and clotrimazole were added to the test buffer and the membrane potential ratios (MPR™) was determined. The membrane potential ratios (MPR™) values are shown in box plots. […] Similarly boxes 3, 4 and 5 show the results for clotrimazole (CLTX). Box 3 represents no CLTX, while box 4 for 2.5 micro molar CLTX and box 5 for 5 micro molar concentrations in the test buffer.
# Blood samples from a patient were suspended in a reference buffer (reference buffer sample) as well as in a test buffer (test buffer sample) with 3,3′-dihexyloxacarbocyanine iodide (DiOC6) dye, incubated, spun, drained and the […] resuspended in their respective buffers without the dye. The resuspended buffer samples were then distributed in three separate 96 well plates and tested in a Plate Reader for fluorescence intensity. The Plate Reader recorded a data matrix of each of the 96 well plates and the data matrix was transferred to a Template to calculate the ratio between the test buffer sample and the corresponding reference buffer sample. The resulting ratios were calculated to determine the mean value, the standard deviation and the coefficient of variation. This procedure was repeated two more times and the resulting mean value, standard deviation and the coefficient of variation calculated in the same manner. The Membrane Potential Ratio (MPR™) obtained from the mean values was 0.781 (with a standard deviation of 0.014 and coefficient of variation of 1.76). Based on the MPR™ value of 0.781, the patient was diagnosed to have ADHD (with a greater than 97% probability).
# diacylglycerol kinase = settings: human red blood cell membranes; de Courcelles et al. 1985; cited from earlier work
# [1] = system: calmodulin-dependent protein kinase II (CaM-kinase II); settings: Ishida et al. 1995; cited from earlier work
# [2] = CAK channel blockers added to the test buffer (quinine 1 mM; CLTX 2.5 and 5 micro molar), FIG. 2
compound,measurement,setting,value
"CCCCCCCCCCCCCC(=O)O[C@@H]1[C@@H](C)[C@@]2(O)[C@@H](C=C(CO)C[C@]3(O)C(=O)C(C)=C[C@@H]23)[C@@H]2C(C)(C)[C@]12OC(C)=O [PMA, phorbol 12-myristate 13-acetate]",effect on membrane potential ratio (MPR) / cell polarization,"RBC; 2.5 μM in the test buffer versus without PMA, FIG. 4",depolarizes the cells very effectively
Clc1ccccc1C(c1ccccc1)(c1ccccc1)n1ccnc1 [clotrimazole],effect on membrane potentials,RBC; [2],depolarized the membrane potentials robustly
same,EtOH effect (hSK4 opening / hyperpolarization),RBC; FIG. 2,blocked
"CN[C@@H]1C[C@H]2O[C@@](C)([C@@H]1OC)n1c3ccccc3c3c4c(c5c6ccccc6n2c5c31)C(=O)NC4 [Staurosporine, staurosporine]",effect on membrane potentials,"RBC; three concentrations (250 nM, 500 nM and 750 nM) in the test buffer, FIG. 5",hyperpolarizes the membrane potentials very effectively
same,effect on membrane potentials,"RBC; three concentrations (250 nM, 500 nM and 750 nM) in the test buffer, FIG. 5, listed as staurosporine",hyperpolarizes the membrane potential in a concentration dependent manner
"Cc1nc2sccn2c(=O)c1CCN1CCC(=C(c2ccccc2)c2ccc(F)cc2)CC1 [ALX, 6-[2-[4-[(4-fluorophenyl)phenylmethylene]-1-piperidinyl]ethyl]-7-methyl-5H-thiazolo[3,2-a]pyrimidin-5-one]",effect on membrane potential,"RBC; three concentrations 2.5 μl, 5 μl and 7.5 μl, FIG. 7",depolarizes the membrane potential
same,inhibition of diacylglycerol kinase,diacylglycerol kinase,found to inhibit diacylglycerol kinase
C=C[C@H]1C[N@@]2CC[C@H]1C[C@H]2[C@H](O)c1ccnc2ccc(OC)cc12 [quinine],membrane potential ratio (MPR) values,"RBC; 1 mM quinine in the test buffer compared to test buffer without quinine, FIG. 2",increased
same,effect on membrane potentials,RBC; [2],depolarized the membrane potentials robustly
same,EtOH effect (hSK4 opening / hyperpolarization),RBC; FIG. 2,blocked
autocamtide-2-related inhibitory peptide [AIP],effect on membrane potential,"RBC; 5 μM concentration, FIG. 6",depolarizes the membrane potential robustly
same,inhibition of CaM-kinase II,[1],highly specific and potent inhibitor
"Nc1ncnc2c1nc(Sc1ccc(Cl)cc1)n2[C@@H]1O[C@@H]2COP(=O)(O)O[C@H]2[C@H]1O [8-CPT, 8-CPT-cAMP]",effect on membrane potential ratio (MPR) / membrane potentials,"RBC; 50 μM in the test buffer, FIG. 3",did not have any effect; also recorded: no effect
